Measurements: patent US10828301B2, “2,4-pyrimidinediamine compounds and their uses” (Rigel Pharmaceuticals, Inc, priority 2002, dated 2020)
Where a name gives a salt, the structure may show the parent alone.

Tests used:
[1] = system: cultured human mast cells (CHMC); assay: CHMC low cell density IgE activation: tryptase and LTC4 assays; type: cell-based; conditions: Homo sapiens, Mast cell, Low Density CHMC, anti-IgE activation, tryptase readout; read-out: CHMC anti-IgE Tryptase
In short: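 Cultured human mast cells at low density (1000-1500 per well) rested 1 h at 37° C, then stimulated with anti-IgE for 30 min at 37° C. Supernatant tryptase measured with fluorogenic substrate (30 min, room temperature); LTC4 quantified by ELISA on diluted supernatant.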

[2] = system: cultured human mast cells (CHMC); assay: CHMC low cell density ionomycin activation: tryptase assay; type: cell-based; conditions: Homo sapiens, Mast cell, Low Density CHMC, ionomycin activation, tryptase readout; read-out: CHMC Ionomycin Tryptase

| Structure (SMILES) | IC50 [1] | IC50 [2] |
| --- | --- | --- |
| Fc1cnc(NCCc2ccccc2)nc1Nc1ccc2c(c1)OCCO2 (racemic) [Compound R908697, (±)-N4-(3,4-Ethylenedioxyphenyl)-5-fluoro-N2-(2-phenylethyl)-2,4-pyrimidinediamine] | > 10 µM | > 10 µM |
| Oc1cccc(Nc2ncc(F)c(NC(c3ccc(Cl)cc3)c3ccc(Cl)cc3)n2)c1 [Compound R935019, 5-Fluoro-N2-(3-hydroxyphenyl)-N4-[di-(4-chlorophenyl)methyl]-2,4-pyrimidinediamine] | 8.8 µM | > 10 µM |
| COc1ccc(-c2ccccc2)cc1Nc1ccnc(Nc2cc(-c3ccccc3)ccc2OC)n1 [Compound R925805, N2,N4-Bis(2-methoxy-5-phenylphenyl)-2,4-pyrimidinediamine] | > 10 µM | > 10 µM |
| COC(=O)c1ccc(Nc2ncc(F)c(Nc3ccc(C(=O)OC)c(O)c3)n2)cc1O [Compound R945056, N2,N4-Bis[3-hydroxy-4-(methoxycarbonyl)phenyl]-5-fluoro-2,4-pyrimidinediamine] | 10 µM | > 10 µM |
| CNC(=O)c1cc(Nc2nc(NC)ncc2F)ccc1OC [Compound R940304, 5-Fluoro-N4-(3-methylaminocarbonyl-4-methoxyphenyl)-N2-methyl-2,4-pyrimidinediamine] | > 10 µM | > 10 µM |
| c1ccc(-c2ccccc2Nc2ccnc(Nc3ccccc3-c3ccccc3)n2)cc1 [Compound R925804, N2,N4-Bis(2-phenylphenyl)-2,4-pyrimidinediamine] | > 10 µM | > 10 µM |
| CC(C)(C)OC(=O)C=Nc1cccc(Nc2nc(Nc3cccc(N)c3)ncc2F)c1 [Compound R950179, N2-(3-Aminophenyl)-N4-(3-tert-butoxycarbonylmethyleneaminophenyl)-5-fluoro-2,4-pyrimidinediamine] | 0.955 µM | > 10 µM |
| COc1ccc(OCCNc2ncc(F)c(Nc3ccc4c(c3)OCCO4)n2)cc1 [Compound R950204, N4-(3,4-Ethylenedioxyphenyl)-5-fluoro-N2-[(4-methoxyphenyloxy)ethyl]-2,4-pyrimidinediamine] | 6.29 µM | > 10 µM |
| Fc1cnc(Nc2ccc(N3CCN(Cc4ccccc4)CC3)cc2)nc1Nc1ccc(N2CCN(Cc3ccccc3)CC2)cc1 [Compound R945152, N2,N4-Bis[4-(N-benzylpiperazino)phenyl]-5-fluoro-2,4-pyrimidinediamine] | 6.94 µM | > 10 µM |
| COC(=O)c1cc2cc(Nc3ncc(F)c(Nc4ccc(Cl)c(Cl)c4)n3)ccc2o1 [Compound R927027, N4-(3,4-Dichlorophenyl)-5-fluoro-N2-(2-methoxycarbonylbenzofuran-5-yl)-2,4-pyrimidinediamine] | > 10 µM | > 10 µM |
| Fc1cnc(NCc2ccccc2)nc1NCc1ccccc1 [Compound R925772, N2,N4-Dibenzyl-5-fluoro-2,4-pyrimidinediamine] | > 10 µM | > 10 µM |
| Fc1cnc(Nc2ccc3c(c2)OCCO3)nc1Nn1cccc1 [Compound R935277, N2-(3,4-Ethylenedioxyphenyl)-5-Fluoro-N4-(1H-pyrrol-1-yl)-2,4-pyrimidinediamine] | 22.9 µM | 8.9 µM |

Results, then the molecule that gave them:

| IC50 [1] | IC50 [2] | Structure (SMILES) |
| --- | --- | --- |
| 1.45 µM | > 10 µM | CC(C)(C)c1ccc(Nc2nc(Nc3ccc4oc(C(=O)O)cc4c3)ncc2F)cc1 [Compound R926481, N4-(4-tert-Butylphenyl)-N2-(2-carboxybenzofuran-5-yl)-5-fluoro-2,4-pyrimidinediamine] |
| 2.2 µM | > 10 µM | Nc1cc(Cl)cc(Nc2ccnc(Nc3cc(N)cc(Cl)c3)n2)c1 [Compound R950133, N2,N4-Bis(3-amino-5-chlorophenyl)-2,4-pyrimidinediamine] |
| 1.84 µM | 99 µM | CN1C=COc2ccc(Nc3nc(Nc4cccc(O)c4)ncc3F)cc21 [Compound R908710, 5-Fluoro-N2-(3-hydroxyphenyl)-N4-(N-methyl-1,4-benzoxazin-6-yl)-2,4-pyrimidinediamine] |
| 0.588 µM | > 10 µM | CC(C)(CO)NC(=O)c1cc2cc(Nc3ncc(F)c(Nc4cccc(O)c4)n3)ccc2o1 [Compound R926715, 5-Fluoro-N2-[2-(2-hydroxy-1,1-dimethylethylamino)carbonylbenzofuran-5-yl]-N4-(3-hydroxyphenyl)-2,4-pyrimidinediamine] |
| 0.64 µM | 5.55 µM | Oc1ccc(Nc2ncc(F)c(Nc3ccc(O)c(C(F)(F)F)c3)n2)cc1C(F)(F)F [Compound R950093, N2,N4-Bis(4-hydroxy-3-trifluoromethylphenyl)-5-fluoro-2,4-pyrimidinediamine] |
| 0.515 µM | > 10 µM | OCCOc1cccc(Nc2ncc(F)c(Nc3ccc4oc(CO)cc4c3)n2)c1 [Compound R935178, 5-Fluoro-N2-[3-(2-hydroxyethyloxy)phenyl]-N4-(2-hydroxymethylbenzofur-5-yl)-2,4-pyrimidinediamine] |
| 0.345 µM | > 10 µM | Fc1cnc(Nc2ccc3[nH]ccc3c2)nc1Nc1ccc2c(c1)OCCO2 [Compound R926748, N4-(3,4-Ethylenedioxyphenyl)-5-fluoro-N2-[(1H)-indol-5-yl]-2,4-pyrimidinediamine] |
| 0.6 µM | 7.7 µM | CCOC(=O)c1cc2cc(Nc3ncc(F)c(Nc4ccc5c(c4)OCCO5)n3)ccc2[nH]1 [Compound R926476, N2-(2-Ethoxycarbonylindol-5-yl)-N4-(3,4-ethylenedioxyphenyl)-5-fluoro-2,4-pyrimidinediamine] |
| 0.195 µM | > 10 µM | Oc1c(Cl)cc(Nc2ncc(F)c(Nc3ccc4c(c3)OCCO4)n2)cc1Cl [Compound R926763, N4-(3,4-Ethylenedioxyphenyl)-5-fluoro-N2-(3,5-dichloro-4-hydroxyphenyl)-2,4-pyrimidinediamine] |
| 4.08 µM | > 10 µM | Oc1cccc(Nc2nc(NCCc3c[nH]c4ccccc34)ncc2F)c1 [Compound R945117, 5-Fluoro-N4-(3-hydroxyphenyl)-N2-[2-(indol-3-yl)ethyl]-2,4-pyrimidinediamine] |
| 2.05 µM | > 10 µM | CN(C)CCOc1cccc(Nc2ncc(F)c(Nc3ccc4c(c3)OCCO4)n2)c1 [Compound R926771, N2-[3-[2-(N, N-Dimethylamino)ethyloxy]phenyl]-N4-(3,4-Ethylenedioxyphenyl)-5-fluoro-2,4-pyrimidinediamine Hydrogen Chloride Salt] |
| 0.304 µM | > 10 µM | O=C(NCC(O)CO)c1cc2cc(Nc3ncc(F)c(Nc4ccc5c(c4)OCCO5)n3)ccc2o1 (stereo not shown) [Compound R926783, N2-[2-(N-2,3-Dihydroxypropylamino)carbonylbenzofuran-5-yl]-N4-(3,4-ethylenedioxyphenyl)-5-fluoro-2,4-pyrimidinediamine] |
| 2.25 µM | > 10 µM | COc1cc(Nc2ncc(F)c(Nc3cc(OC)c(OC)c(OC)c3)n2)cc(OC)c1OC [Compound R926688, N2,N4-Bis(3,4,5-trimethoxyphenyl)-5-fluoro-2,4-pyrimidinediamine] |
| 0.488 µM | 9.48 µM | CC(C)Oc1ccc(Nc2ncc(F)c(Nc3ccc(C(C)(C)CO)cc3)n2)cc1 [Compound R935168, 5-Fluoro-N4-[4-(2-hydroxy-1,1-dimethylethyl)phenyl]-N2-(4-isopropoxyphenyl)-2,4-pyrimidinediamine] |
